Experimental data taken from patent publication US20250360107A1, “USE OF MAZINDOL TO TREAT NERVOUS SYSTEM DISORDERS” (AXSOME THERAPEUTICS, INC., priority 2022, published 2025).
Several values for one entry are separate records, joined by “and”; a condition that tells them apart may be missing. Equal entries are not always repeated.

Legend:
[1] = tested on: narcolepsy with cataplexy; test: Epworth Sleepiness Scale (ESS) score in a patient with narcolepsy with cataplexy; format: in vivo, human; settings: single patient, 5 mg at 8 am and 5 mg at 1 pm each day
Method: A person is diagnosed as suffering from narcolepsy with cataplexy. They are given mazindol and instructed to take 5 mg of mazindol at 8 am and 5 mg of mazindol at 1 pm each day for three weeks. The patient is evaluated prior to treatment, and weekly to determine the MWT score, the number of cataplexy attacks, the PGI-C score, the HAM-D score, the ESS score, the NSAQ score, and the ability to concentrate on the NSAQ. After one week of treatment, the ESS score has decreased by 10-30%.
A person is diagnosed as suffering from narcolepsy with cataplexy. They are given mazindol and instructed to take 5 mg of mazindol at 8 am and 5 mg of mazindol at 1 pm each day for three weeks. The patient is evaluated prior to treatment, and weekly to determine the MWT score, the number of cataplexy attacks, the PGI-C score, the HAM-D score, the ESS score, the NSAQ score, and the ability to concentrate on the NSAQ. After one week of treatment, the ESS score has decreased by 30-60%.
A person is diagnosed as suffering from narcolepsy with cataplexy. They are given mazindol and instructed to take 5 mg of mazindol at 8 am and 5 mg of mazindol at 1 pm each day for three weeks. The patient is evaluated prior to treatment, and weekly to determine the MWT score, the number of cataplexy attacks, the PGI-C score, the HAM-D score, the ESS score, the NSAQ score, and the ability to concentrate on the NSAQ. […]

[2] = human patients; without controlled release coating; cited from earlier work
[3] = tested on: narcolepsy with cataplexy; test: Hamilton Depression Rating Scale (HAM-D) score in a patient with narcolepsy with cataplexy; format: in vivo, human; settings: single patient; 5 mg at 8 am and 5 mg at 1 pm each day; after three weeks of treatment
Method: A person is diagnosed as suffering from narcolepsy with cataplexy. They are given mazindol and instructed to take 5 mg of mazindol at 8 am and 5 mg of mazindol at 1 pm […] After three weeks of treatment, the HAM-D score has decreased by 10-30%.
A person is diagnosed as suffering from narcolepsy with cataplexy. They are given mazindol and instructed to take 5 mg of mazindol at 8 am and 5 mg of mazindol at 1 pm each day for three weeks. The patient is evaluated prior to treatment, and weekly to determine the MWT score, the number of cataplexy attacks, the PGI-C score, the HAM-D score, the ESS score, the NSAQ score, and the ability to concentrate on the NSAQ. After three weeks of treatment, the HAM-D score has decreased by 30-60%.
A person is diagnosed as suffering from narcolepsy with cataplexy. They are given mazindol and instructed to take 5 mg of mazindol at 8 am and 5 mg of mazindol at 1 pm each day for three weeks. The patient is evaluated prior to treatment, and weekly to determine the MWT score, the number of cataplexy attacks, the PGI-C score, the HAM-D score, the ESS score, the NSAQ score, and the ability to concentrate on the NSAQ. After three weeks of treatment, the HAM-D score has decreased by 60-100%.

[4] = tested on: narcolepsy with cataplexy; test: Maintenance of Wakefulness Test (MWT) score in a patient with narcolepsy with cataplexy; format: in vivo, human; settings: single patient, 5 mg at 8 am and 5 mg at 1 pm each day
Method: A person is diagnosed as suffering from narcolepsy with cataplexy. They are given mazindol and instructed to take 5 mg of mazindol at 8 am and 5 mg of mazindol at 1 pm […] After one week of treatment, the MWT score has increased by 10-30%.
A person is diagnosed as suffering from narcolepsy with cataplexy. They are given mazindol and instructed to take 5 mg of mazindol at 8 am and 5 mg of mazindol at 1 pm each day for three weeks. The patient is evaluated prior to treatment, and weekly to determine the MWT score, the number of cataplexy attacks, the PGI-C score, the HAM-D score, the ESS score, the NSAQ score, and the ability to concentrate on the NSAQ. After one week of treatment, the MWT score has increased by 30-60%.
(§1) A person is diagnosed as suffering from narcolepsy with cataplexy. […] The patient is evaluated prior to treatment, and weekly to determine the MWT score, the number of cataplexy attacks, the PGI-C score, the HAM-D score, the ESS score, the NSAQ score, and the ability to concentrate on the NSAQ. […]
as §1

[5] = tested on: narcolepsy with cataplexy; test: Number of cataplexy attacks in a patient with narcolepsy with cataplexy; format: in vivo, human; settings: single patient, 5 mg at 8 am and 5 mg at 1 pm each day
Method: A person is diagnosed as suffering from narcolepsy with cataplexy. They are given mazindol and instructed to take 5 mg of mazindol at 8 am and 5 mg of mazindol at 1 pm each day for three weeks. The patient is evaluated prior to treatment, and weekly to determine the MWT score, the number of cataplexy attacks, the PGI-C score, the HAM-D score, the ESS score, the NSAQ score, and the ability to concentrate on the NSAQ. After one week of treatment, the number of cataplexy attacks have decreased by 10-30%.
A person is diagnosed as suffering from narcolepsy with cataplexy. They are given mazindol and instructed to take 5 mg of mazindol at 8 am and 5 mg of mazindol at 1 pm each day for three weeks. The patient is evaluated prior to treatment, and weekly to determine the MWT score, the number of cataplexy attacks, the PGI-C score, the HAM-D score, the ESS score, the NSAQ score, and the ability to concentrate on the NSAQ. After one week of treatment, the number of cataplexy attacks have decreased by 30-60%.
A person is diagnosed as suffering from narcolepsy with cataplexy. […]
as §1

OC1(c2ccc(Cl)cc2)c2ccccc2C2=NCCN21 (centres unmarked) [mazindol]
decrease in ESS score ([1]; after one week of treatment): 10-30% and 30-60% and 60-100% | decrease in ESS score ([1]; after three weeks of treatment): 10-30% and 30-60% and 60-100% | time to reach a maximum plasma concentration [2]: 2 to 4 h | decrease in HAM-D score [3]: 10-30% and 30-60% and 60-100% | increase in MWT score ([4]; after one week of treatment): 10-30% and 30-60% and 60-100% | increase in MWT score ([4]; after three weeks of treatment): 10-30% and 30-60% and 60-100% | decrease in the number of cataplexy attacks ([5]; after one week of treatment): 10-30% and 30-60% and 60-100% | decrease in the number of cataplexy attacks ([5]; after three weeks of treatment): 10-30% and 30-60% and 60-100%
